Common to all, as to assay: Competitive isoTOP-ABPP, cell lysates
Format in all cases: binding

For one test, the target named is RRAGC C358 (Q9HB90) (Homo sapiens, UniProt Q9HB90). Particulars: for isoTOP-ABPP reactivity ratio, Q9HB90_C358 / isoTOP-ABPP reactivity profile ratio, Q9HB90_C358: 500 μm.
Another test has as its target CASP8 C360 (Q14790) (Homo sapiens, UniProt Q14790). To be noted: for isoTOP-ABPP reactivity ratio, Q14790_C360: 500 μm.
The next test addresses MLTK C22 (Q9NYL2) (Homo sapiens, UniProt Q9NYL2). To be noted: for isoTOP-ABPP reactivity ratio, Q9NYL2_C22 / isoTOP-ABPP reactivity profile ratio, Q9NYL2_C22: 500 μm, in-vitro_ramos_231.
A further test addresses LRBA C2675 (P50851) (Homo sapiens, UniProt P50851).
In another test the target is PFKFB4 C159 (Q16877) (Homo sapiens, UniProt Q16877). To be noted: 500 μm, in-vitro_ramos.
The target in the next test is T1, USP28 C171 (Q96RU2) (Homo sapiens, UniProt Q96RU2).
T1 sequence (Q96RU2 1-1077): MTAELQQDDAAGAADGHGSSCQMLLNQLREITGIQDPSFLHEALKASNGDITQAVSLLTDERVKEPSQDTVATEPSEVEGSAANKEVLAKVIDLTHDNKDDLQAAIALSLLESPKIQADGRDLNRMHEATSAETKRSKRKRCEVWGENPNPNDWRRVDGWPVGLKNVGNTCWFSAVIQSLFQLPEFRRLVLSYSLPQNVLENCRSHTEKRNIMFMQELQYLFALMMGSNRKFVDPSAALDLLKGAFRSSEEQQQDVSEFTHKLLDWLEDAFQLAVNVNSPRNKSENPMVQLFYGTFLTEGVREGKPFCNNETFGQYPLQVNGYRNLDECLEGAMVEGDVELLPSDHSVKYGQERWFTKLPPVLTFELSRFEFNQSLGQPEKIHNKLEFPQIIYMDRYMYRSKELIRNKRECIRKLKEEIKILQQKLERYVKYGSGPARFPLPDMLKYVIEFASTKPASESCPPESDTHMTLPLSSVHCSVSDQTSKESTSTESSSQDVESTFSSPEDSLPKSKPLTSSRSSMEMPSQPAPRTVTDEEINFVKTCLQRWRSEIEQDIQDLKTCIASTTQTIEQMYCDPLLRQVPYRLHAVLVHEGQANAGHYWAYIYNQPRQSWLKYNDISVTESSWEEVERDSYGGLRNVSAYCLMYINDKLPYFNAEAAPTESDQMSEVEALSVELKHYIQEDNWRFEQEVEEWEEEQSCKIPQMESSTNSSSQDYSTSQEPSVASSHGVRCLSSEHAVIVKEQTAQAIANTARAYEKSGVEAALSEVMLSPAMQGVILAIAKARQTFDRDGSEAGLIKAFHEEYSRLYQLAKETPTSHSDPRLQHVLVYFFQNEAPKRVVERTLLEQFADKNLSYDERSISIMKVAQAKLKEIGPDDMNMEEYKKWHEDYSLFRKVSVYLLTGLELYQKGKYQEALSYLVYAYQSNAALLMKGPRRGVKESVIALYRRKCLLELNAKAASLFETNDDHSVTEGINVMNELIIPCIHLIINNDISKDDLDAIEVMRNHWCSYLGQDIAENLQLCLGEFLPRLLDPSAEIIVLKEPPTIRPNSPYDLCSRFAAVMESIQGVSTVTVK
Particulars: 500 μm, in-vitro_ramos_231.

Sequence of LRBA C2675 (P50851) (P50851 whole entry): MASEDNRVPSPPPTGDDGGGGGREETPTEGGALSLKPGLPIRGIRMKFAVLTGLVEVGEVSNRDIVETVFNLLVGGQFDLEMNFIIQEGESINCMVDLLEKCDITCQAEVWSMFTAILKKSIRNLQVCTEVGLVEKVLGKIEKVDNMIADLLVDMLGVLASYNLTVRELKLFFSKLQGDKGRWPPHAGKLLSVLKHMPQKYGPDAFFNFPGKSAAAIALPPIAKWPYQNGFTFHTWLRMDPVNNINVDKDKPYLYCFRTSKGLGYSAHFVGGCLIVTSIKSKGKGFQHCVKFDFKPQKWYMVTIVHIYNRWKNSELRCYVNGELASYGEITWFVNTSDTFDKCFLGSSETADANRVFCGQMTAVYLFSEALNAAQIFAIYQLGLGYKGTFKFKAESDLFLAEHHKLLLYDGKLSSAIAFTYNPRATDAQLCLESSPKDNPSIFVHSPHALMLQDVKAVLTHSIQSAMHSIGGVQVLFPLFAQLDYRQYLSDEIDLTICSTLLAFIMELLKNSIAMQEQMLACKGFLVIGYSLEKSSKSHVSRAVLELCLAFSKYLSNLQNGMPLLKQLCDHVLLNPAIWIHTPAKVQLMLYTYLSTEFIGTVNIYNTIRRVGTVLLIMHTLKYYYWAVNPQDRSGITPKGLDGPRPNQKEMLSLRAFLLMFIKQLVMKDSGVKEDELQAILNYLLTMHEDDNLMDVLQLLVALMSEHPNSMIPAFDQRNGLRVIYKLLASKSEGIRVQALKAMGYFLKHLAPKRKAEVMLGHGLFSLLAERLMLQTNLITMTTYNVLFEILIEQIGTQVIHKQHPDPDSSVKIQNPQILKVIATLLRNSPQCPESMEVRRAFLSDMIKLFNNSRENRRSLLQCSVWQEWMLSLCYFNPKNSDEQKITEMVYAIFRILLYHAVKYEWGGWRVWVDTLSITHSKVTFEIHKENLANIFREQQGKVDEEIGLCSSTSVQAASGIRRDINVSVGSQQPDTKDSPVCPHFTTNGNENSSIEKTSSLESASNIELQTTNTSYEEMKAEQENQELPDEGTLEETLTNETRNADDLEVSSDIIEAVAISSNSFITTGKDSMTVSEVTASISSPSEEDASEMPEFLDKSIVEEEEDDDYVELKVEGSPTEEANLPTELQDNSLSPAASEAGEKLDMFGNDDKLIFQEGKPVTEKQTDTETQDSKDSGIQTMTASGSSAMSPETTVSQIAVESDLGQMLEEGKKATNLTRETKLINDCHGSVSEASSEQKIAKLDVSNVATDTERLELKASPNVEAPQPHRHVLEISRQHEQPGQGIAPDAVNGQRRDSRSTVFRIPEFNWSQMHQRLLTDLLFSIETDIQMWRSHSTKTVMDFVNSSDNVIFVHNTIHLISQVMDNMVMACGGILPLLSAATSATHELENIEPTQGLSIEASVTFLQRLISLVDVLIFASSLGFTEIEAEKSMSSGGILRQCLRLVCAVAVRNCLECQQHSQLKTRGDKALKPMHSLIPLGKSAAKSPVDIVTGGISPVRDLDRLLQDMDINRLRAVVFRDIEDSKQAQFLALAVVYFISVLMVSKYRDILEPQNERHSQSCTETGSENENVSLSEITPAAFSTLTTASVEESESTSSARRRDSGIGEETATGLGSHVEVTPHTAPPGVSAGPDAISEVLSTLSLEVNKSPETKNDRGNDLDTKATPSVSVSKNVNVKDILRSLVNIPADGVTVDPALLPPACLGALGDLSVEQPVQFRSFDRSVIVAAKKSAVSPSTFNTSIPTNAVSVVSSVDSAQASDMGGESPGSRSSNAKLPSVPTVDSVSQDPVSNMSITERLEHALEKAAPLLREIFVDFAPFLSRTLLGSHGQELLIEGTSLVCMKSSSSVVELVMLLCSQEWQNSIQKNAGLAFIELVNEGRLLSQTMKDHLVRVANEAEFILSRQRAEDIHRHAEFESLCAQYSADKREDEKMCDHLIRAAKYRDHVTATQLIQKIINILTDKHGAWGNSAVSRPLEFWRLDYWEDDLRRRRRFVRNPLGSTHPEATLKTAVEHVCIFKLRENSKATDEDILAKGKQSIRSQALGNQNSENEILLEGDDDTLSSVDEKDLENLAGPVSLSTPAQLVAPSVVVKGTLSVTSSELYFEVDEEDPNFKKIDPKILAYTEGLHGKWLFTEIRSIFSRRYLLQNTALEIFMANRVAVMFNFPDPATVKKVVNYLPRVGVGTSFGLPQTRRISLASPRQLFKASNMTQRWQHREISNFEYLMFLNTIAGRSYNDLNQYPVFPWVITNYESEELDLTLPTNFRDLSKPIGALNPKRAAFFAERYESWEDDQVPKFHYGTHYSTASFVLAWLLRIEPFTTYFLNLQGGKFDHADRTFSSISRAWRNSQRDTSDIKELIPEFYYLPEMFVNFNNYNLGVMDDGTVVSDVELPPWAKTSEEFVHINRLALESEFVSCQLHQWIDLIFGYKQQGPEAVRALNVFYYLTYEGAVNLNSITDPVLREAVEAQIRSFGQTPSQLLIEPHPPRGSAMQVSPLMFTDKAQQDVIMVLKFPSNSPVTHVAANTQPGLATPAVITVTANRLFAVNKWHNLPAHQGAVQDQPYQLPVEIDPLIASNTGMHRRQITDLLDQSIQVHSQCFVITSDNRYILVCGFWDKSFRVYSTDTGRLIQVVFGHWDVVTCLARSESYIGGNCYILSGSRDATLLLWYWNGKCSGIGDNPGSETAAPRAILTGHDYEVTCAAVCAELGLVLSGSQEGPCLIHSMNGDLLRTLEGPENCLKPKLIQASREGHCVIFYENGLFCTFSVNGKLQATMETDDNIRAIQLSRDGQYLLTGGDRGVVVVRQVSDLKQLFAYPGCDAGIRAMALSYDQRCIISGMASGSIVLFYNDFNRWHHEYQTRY
Sequence of PFKFB4 C159 (Q16877) (Q16877 whole entry): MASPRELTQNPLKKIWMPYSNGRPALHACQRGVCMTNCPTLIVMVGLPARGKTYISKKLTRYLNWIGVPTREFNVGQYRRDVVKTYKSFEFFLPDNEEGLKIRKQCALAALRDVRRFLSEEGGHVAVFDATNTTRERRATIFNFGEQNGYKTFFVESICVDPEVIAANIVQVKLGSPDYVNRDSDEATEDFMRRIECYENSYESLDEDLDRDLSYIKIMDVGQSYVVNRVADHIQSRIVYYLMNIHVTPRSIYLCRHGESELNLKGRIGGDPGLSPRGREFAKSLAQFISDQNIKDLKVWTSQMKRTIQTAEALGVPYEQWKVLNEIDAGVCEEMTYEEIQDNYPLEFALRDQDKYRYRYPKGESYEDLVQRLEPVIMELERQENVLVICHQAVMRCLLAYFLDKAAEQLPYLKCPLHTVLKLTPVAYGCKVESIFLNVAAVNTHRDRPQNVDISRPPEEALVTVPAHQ
Sequence of CASP8 C360 (Q14790) (Q14790 whole entry): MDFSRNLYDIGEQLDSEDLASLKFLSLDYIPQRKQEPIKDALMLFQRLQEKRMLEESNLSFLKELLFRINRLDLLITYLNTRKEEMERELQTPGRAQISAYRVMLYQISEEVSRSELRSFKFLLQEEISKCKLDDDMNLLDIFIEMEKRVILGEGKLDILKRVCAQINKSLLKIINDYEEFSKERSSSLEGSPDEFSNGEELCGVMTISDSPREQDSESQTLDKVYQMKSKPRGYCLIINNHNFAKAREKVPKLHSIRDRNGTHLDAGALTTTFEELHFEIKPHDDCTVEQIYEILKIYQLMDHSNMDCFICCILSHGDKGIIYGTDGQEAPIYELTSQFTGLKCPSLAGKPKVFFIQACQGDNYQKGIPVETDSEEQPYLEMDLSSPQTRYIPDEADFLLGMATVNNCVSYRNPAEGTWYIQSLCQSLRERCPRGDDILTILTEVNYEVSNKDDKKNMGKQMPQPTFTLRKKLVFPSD
Sequence of RRAGC C358 (Q9HB90) (Q9HB90 2-399 limits assumed): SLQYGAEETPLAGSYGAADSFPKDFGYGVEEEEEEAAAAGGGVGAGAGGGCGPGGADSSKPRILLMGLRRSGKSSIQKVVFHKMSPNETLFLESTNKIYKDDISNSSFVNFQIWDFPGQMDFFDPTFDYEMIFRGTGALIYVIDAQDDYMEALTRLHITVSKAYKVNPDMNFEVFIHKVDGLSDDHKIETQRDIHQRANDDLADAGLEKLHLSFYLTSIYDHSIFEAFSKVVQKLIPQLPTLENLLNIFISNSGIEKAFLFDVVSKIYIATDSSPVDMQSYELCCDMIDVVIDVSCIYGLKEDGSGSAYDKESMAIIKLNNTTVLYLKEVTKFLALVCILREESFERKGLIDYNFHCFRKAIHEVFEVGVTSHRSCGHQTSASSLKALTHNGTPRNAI
Sequence of RRAGC C358 (Q9HB90) (Q7L523 whole entry partner): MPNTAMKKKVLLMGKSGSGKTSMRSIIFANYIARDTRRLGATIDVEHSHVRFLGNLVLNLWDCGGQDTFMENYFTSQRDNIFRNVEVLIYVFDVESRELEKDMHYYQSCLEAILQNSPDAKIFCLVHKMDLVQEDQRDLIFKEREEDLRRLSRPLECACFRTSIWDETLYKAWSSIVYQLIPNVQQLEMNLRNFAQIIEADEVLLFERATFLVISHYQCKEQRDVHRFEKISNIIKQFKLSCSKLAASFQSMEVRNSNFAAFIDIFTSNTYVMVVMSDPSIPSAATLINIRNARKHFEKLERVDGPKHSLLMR

With `COc1ccccc1OCCNC(=O)CCl` [compound 28], at RRAGC C358 (Q9HB90) (500 μm in-vitro ramos_231), the “isoTOP-ABPP ratio (reactivity profile), Q9HB90_C358” value is on record as 1.1. Moreover, the “isoTOP-ABPP ratio (reactivity profile), Q14790_C360” value at CASP8 C360 (Q14790) (500 μm in-vitro ramos_231) amounted to 1.1. Further, on MLTK C22 (Q9NYL2) (500 μm in-vitro ramos_231), the “isoTOP-ABPP ratio (reactivity profile), Q9NYL2_C22” value (“isoTOP-ABPP ratio … Q9NYL2_C22” below) is on record as 1.4.

As for `O=C(CCl)N1CCN(CC(=O)N2CCOCC2)CC1` [compound 29], at LRBA C2675 (P50851) (500 μm in-vitro ramos_231), the “isoTOP-ABPP ratio (reactivity profile), P50851_C2675” value stood at 1.1. For the same molecule, the “isoTOP-ABPP ratio … Q9NYL2_C22” value on MLTK C22 (Q9NYL2) (500 μm in-vitro ramos_231) was 1.2.

As to `CCN(CC)c1ccc(S(N)(=O)=O)cc1NC(=O)CCl` [compound 30], the “isoTOP-ABPP ratio (reactivity profile), P50851_C2675” value on LRBA C2675 (P50851) (500 μm in-vitro ramos) is 0.9. Further, at RRAGC C358 (Q9HB90) (500 μm in-vitro ramos), the “isoTOP-ABPP ratio (reactivity profile), Q9HB90_C358” value is listed as 1.0. Besides, on CASP8 C360 (Q14790) (500 μm in-vitro ramos), the “isoTOP-ABPP ratio (reactivity profile), Q14790_C360” value is on record as 2.0. The “isoTOP-ABPP reactivity ratio, Q14790_C360” value on CASP8 C360 (Q14790) (in-vitro_ramos) worked out at 5.2. Also, the “isoTOP-ABPP ratio … Q9NYL2_C22” value on MLTK C22 (Q9NYL2) (500 μm in-vitro ramos) was determined as 1.1.

Regarding `C=CC(=O)N(Cc1cccnc1)c1cc(C(F)(F)F)cc(C(F)(F)F)c1` [compound 31], the “isoTOP-ABPP reactivity ratio, Q9HB90_C358” value at RRAGC C358 (Q9HB90) (in-vitro_ramos_231) worked out at 2.3.

Turning to `CC(C)(C)c1cc(NC(=O)CCl)on1` [compound 32], the “isoTOP-ABPP reactivity ratio, P50851_C2675” value at LRBA C2675 (P50851) (500 μm, in-vitro_ramos) is reported as 1.1; at LRBA C2675 (P50851) (500 μm, in-vitro_ramos_231), 1.8. For the same molecule, the “isoTOP-ABPP reactivity ratio, Q9HB90_C358” value on RRAGC C358 (Q9HB90) (in-vitro_ramos) was determined as 1.2; on RRAGC C358 (Q9HB90) (in-vitro_ramos_231), 1.9. The “isoTOP-ABPP reactivity ratio, Q16877_C159” value on PFKFB4 C159 (Q16877) is given as 1.5. Besides, at MLTK C22 (Q9NYL2), the “isoTOP-ABPP reactivity ratio, Q9NYL2_C22” value is recorded as 2.1.

In the case of `O=C(CCl)N(Cc1ccc(F)cc1)C12CC3CC(CC(C3)C1)C2` [compound 34], the “isoTOP-ABPP reactivity ratio, P50851_C2675” value at LRBA C2675 (P50851) (500 μm, in-vitro_ramos) came to 1.1. In addition, the “isoTOP-ABPP reactivity ratio, Q16877_C159” value on PFKFB4 C159 (Q16877) is 1.4. Also, the “isoTOP-ABPP reactivity ratio, Q9NYL2_C22” value on MLTK C22 (Q9NYL2) stood at 0.8.

Turning to `O=C(CCl)Nc1ccccc1C1CCCCCC1` [compound 35], the “isoTOP-ABPP reactivity ratio, P50851_C2675” value at LRBA C2675 (P50851) (500 μm, in-vitro_ramos) is on record as 1.0. Also, on CASP8 C360 (Q14790) (in-vitro_ramos), the “isoTOP-ABPP reactivity ratio, Q14790_C360” value came out at 1.3.

Take `C=CC(=O)N1CCC(c2noc3ccc(F)cc23)CC1` [compound 37]: at LRBA C2675 (P50851) (500 μm, in-vitro_ramos), the “isoTOP-ABPP reactivity ratio, P50851_C2675” value turned out to be 1.0. Moreover, on CASP8 C360 (Q14790) (in-vitro_ramos), the “isoTOP-ABPP reactivity ratio, Q14790_C360” value amounted to 1.0.

For the molecule `C=CC(=O)Nc1cc(F)c(N2CCN(C(=O)OC(C)(C)C)CC2)c(F)c1` [compound 38], the “isoTOP-ABPP reactivity ratio, Q9HB90_C358” value at RRAGC C358 (Q9HB90) (in-vitro_ramos_231) amounted to 1.1. At USP28 C171 (Q96RU2), the “isoTOP-ABPP reactivity ratio, Q96RU2_C171” value turned out to be 3.3. Also, the “isoTOP-ABPP reactivity ratio, Q14790_C360” value on CASP8 C360 (Q14790) (in-vitro_ramos) is given as 4.1; at CASP8 C360 (Q14790) (in-vitro_ramos_231), 1.0. In addition, the “isoTOP-ABPP reactivity ratio, Q9NYL2_C22” value at MLTK C22 (Q9NYL2) was found to be 1.2.

With `C=CC(=O)Nc1cc(C)c(Br)cc1C` [compound 40], the “isoTOP-ABPP reactivity ratio, Q16877_C159” value at PFKFB4 C159 (Q16877) turned out to be 1.2.

Regarding `Cc1ccc(C=C(C#N)C(=O)NCCN2CCOCC2)cc1` [compound 41], the “isoTOP-ABPP reactivity ratio, P50851_C2675” value on LRBA C2675 (P50851) (500 μm, in-vitro_ramos_231) is 1.9. In addition, at RRAGC C358 (Q9HB90) (in-vitro_ramos_231), the “isoTOP-ABPP reactivity ratio, Q9HB90_C358” value stood at 1.3. For the same molecule, the “isoTOP-ABPP reactivity ratio, Q14790_C360” value on CASP8 C360 (Q14790) (in-vitro_ramos) turned out to be 0.8; at CASP8 C360 (Q14790) (in-vitro_ramos_231), 1.0. In addition, the “isoTOP-ABPP reactivity ratio, Q9NYL2_C22” value on MLTK C22 (Q9NYL2) stood at 1.5.

For the molecule `COc1cc(NC(=O)CCl)cc(OC)c1` [compound 43], at MLTK C22 (Q9NYL2), the “isoTOP-ABPP reactivity profile ratio, Q9NYL2_C22” value is listed as 2.9.

`CC1CCc2ccccc2N1C(=O)CCl` (stereo not drawn) [compound 45]: the “isoTOP-ABPP reactivity profile ratio, Q9NYL2_C22” value on MLTK C22 (Q9NYL2) came out at 20.0.

Take `C=CC(=O)N(c1ccccc1)C1CCCCC1` [compound 46]: the “isoTOP-ABPP reactivity profile ratio, Q9HB90_C358” value on RRAGC C358 (Q9HB90) (in-vitro_ramos_231) was 1.1. Further, the “isoTOP-ABPP reactivity profile ratio, Q96RU2_C171” value at USP28 C171 (Q96RU2) came to 0.9.

Regarding `O=C(CCl)Nc1cccc2ncccc12` [compound 51], the “isoTOP-ABPP reactivity profile ratio, P50851_C2675” value at LRBA C2675 (P50851) (500 μm, in-vitro_ramos) stood at 0.9. Besides, the “isoTOP-ABPP reactivity profile ratio, Q16877_C159” value at PFKFB4 C159 (Q16877) is reported as 1.1.

With `C=CC(=O)N1CCC(Cc2ccccc2)CC1` [compound 53], the “isoTOP-ABPP reactivity profile ratio, Q9HB90_C358” value at RRAGC C358 (Q9HB90) (in-vitro_ramos) is recorded as 0.6.
